Results as given in patent US10544138B2, “Tricyclic kinase inhibitors of MELK and methods of use” (Dana-Farber Cancer Institute, Inc., priority 2015, dated 2020).
pIC50: −log10 of the molar value.

Experiments:
CDK1 = CDK1 (Homo sapiens, UniProt P06493); test: Recombinant mitotic kinase assay, CDK1; type: biochemical; details: recombinant kinases
Method: (§1) […] assays were performed with recombinant protein of the indicated mitotic kinase (left) and AMPK family kinases (right) in the presence of THZ-4-63-1. […] Cells were treated with nocodazole (100 ng/ml) for 18 h or not treated (Asyn., asynchronous). Nocodazole-arrested mitotic cells (M) were isolated via shake-off. The attached cells enriched in G2 phase (G2) were harvested. A portion of the mitotic cells were washed off nocodazole and released into G1 phase after 4 hours of incubation (G1). […] In Panel D, mitotic lysates were prepared from the indicated cells, and treated with λ-phosphatase at 30° C. In Panel E, nocodazole-arrested mitotic cells were treated with increasing concentration of THZ-4-63-1 for 30 min. Cell lysates were subjected to immunoblotting.
(§2) To discover a selective MELK inhibitor, a few molecule scaffolds with the potential of binding to MELK were identified, including 2,4-disubstituted pyrimidines and benzonaphthyridinones. […] To investigate if THZ-4-63-1 confers selective inhibition on MELK, we tested its effect on other mitotic kinases. In assays using recombinant kinases, MELK kinase activity was 20-fold more sensitive to THZ-4-63-1, than that of Aurora A, Aurora B, CDK1, or PLK1 (FIG. 1B).

BRSK1 = target: T1, BRSK1 (Homo sapiens, UniProt Q8TDC3); test: Recombinant AMPK family kinase assay, BRSK1; type: biochemical; details: recombinant kinases
T1 sequence (Q8TDC3 1-778): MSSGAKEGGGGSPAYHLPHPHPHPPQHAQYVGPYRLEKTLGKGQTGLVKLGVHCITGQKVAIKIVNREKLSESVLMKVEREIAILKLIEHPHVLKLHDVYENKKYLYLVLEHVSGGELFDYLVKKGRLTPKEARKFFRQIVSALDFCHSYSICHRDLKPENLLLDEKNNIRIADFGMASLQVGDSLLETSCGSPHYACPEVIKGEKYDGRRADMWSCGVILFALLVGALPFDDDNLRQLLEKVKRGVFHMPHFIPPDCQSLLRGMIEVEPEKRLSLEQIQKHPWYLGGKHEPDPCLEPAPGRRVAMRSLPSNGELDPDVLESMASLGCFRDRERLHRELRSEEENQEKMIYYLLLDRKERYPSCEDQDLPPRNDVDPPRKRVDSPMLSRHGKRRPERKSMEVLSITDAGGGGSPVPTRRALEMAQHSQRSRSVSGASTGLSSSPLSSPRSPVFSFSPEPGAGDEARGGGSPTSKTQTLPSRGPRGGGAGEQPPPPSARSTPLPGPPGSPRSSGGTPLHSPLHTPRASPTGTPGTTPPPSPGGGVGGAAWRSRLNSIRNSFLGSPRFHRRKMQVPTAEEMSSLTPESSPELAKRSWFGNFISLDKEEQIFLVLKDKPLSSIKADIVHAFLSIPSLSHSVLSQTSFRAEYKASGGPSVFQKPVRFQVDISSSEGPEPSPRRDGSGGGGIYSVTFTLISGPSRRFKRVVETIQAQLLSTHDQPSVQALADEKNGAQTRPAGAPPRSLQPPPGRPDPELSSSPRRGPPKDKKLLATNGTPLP
Method: as §1, §2

MARK1 = MARK1 (Homo sapiens, UniProt Q9P0L2); test: Recombinant AMPK family kinase assay, MARK1; type: biochemical; details: recombinant kinases
Method: as §1, §2

[1] = tested on: chromosome passenger complex (Survivin, Aurora B); test: Localization of chromosome passenger complex, immunofluorescence; type: cell-based; details: with nocodazole (0.33 μM) and MG132 (10 μM) 3 h
Method: Cell lysates were prepared for immunoblotting. […] HeLa cells were treated with DMSO or THZ-4-63-1 (5 μM) for 4 h followed by 1 h treatment of MG132 (10 μM). Cells were fixed and stained with anti-H3T3ph and anti-CREST. […] Cells were treated as in FIG. 2, Panel D, and additionally treated with MG132 (10 μM) for 1 h before fixation. The histogram indicates the quantification of H3S10ph signal. […] MCF-10A cells stably expressing empty vector (EV) or MELK were fixed for immunostaining. Images were captured with identical exposure time. H3T3ph intensity was quantified by the use of ImageJ. […] Recombinant MELK protein (kinase domain) was incubated with recombinant Histone H3 for 30 min at 30° C. Samples were subjected to immunoblotting using the indicated antibodies. […] Cells stably expressing GFP-MELK were fixed by formaldehyde and stained with anti-H3S10ph. […] Asynchronized (Async.) or nocodazole-arrested mitotic cells were subjected to fractionation, with sample prepared for immunoblotting. Panels H and I are images showing that MELK inhibition impairs the localization of chromosome passenger complex (CPC), indicated by the immunofluorescence detecting Survivin (G) and Aurora B (H). In addition to the presence of doxycyclin or THZ-4-63-1, cells were treated with nocodazole (0.33 μM) and MG132 (10 μM) for 3 h before fixation. […]

[2] = tested on: basal breast cancer cells; test: Proliferation of basal breast cancer cells; type: cell-based
Method: (§3) Mitotic cells were treated with THZ-4-63-1 at indicated concentrations for 4 h. Cells were collected for immunoblotting. Panel B contains time-lapse images of U2OS-(H2B-GFP) cells treated with THZ-4-63-1 (5 μM). […] Panel C contains blots showing proteasome-mediated degradation of Cyclin B1, Aurora B and MELK in THZ-4-63-1-induced mitotic slippage. Mitotic cells were treated as in Panel A with THZ-4-63-1 (5 μM), or MG132 (10 μM), or both for 4 h. Panel D contains a graph showing quantification of cell proliferation in the indicated breast cancer cell lines, which were treated with vehicle control or THZ-4-63-1 for one week (Top) and also contains bright-field images acquired from control cells or cells treated with THZ-4-63-1 (111 nM) (Bottom). […] Cells were treated with indicated drugs, and harvested in ten days for quantification of cell growth. The bold curve depicts the theoretic prediction of an additive action between paclitaxel and THZ-4-63-1.
With the identification of a selective MELK inhibitor, we next tested if THZ-4-63-1 is an effective agent for those cancer cells. […] The high potency of THZ-4-63-1 not only confirm the previous identification of MELK as an essential kinase for breast cancer, but also poise the compound itself for immediate translational implications.

MDA-MB-468 = test: Cell growth with paclitaxel combination in MDA-MB-468; type: cell-based, human; details: THZ-4-63-1 33.3 or 66.6 nM plus paclitaxel 2 nM
Method: as §3
Because microtubule-targeting chemotherapy is the mainstay of treatment for many types of cancer including basal-like breast cancer, we asked if MELK inhibition could combine with drugs that impair microtubule dynamics. […]

MARK1, sequence (Q9P0L2 whole entry, species assumed): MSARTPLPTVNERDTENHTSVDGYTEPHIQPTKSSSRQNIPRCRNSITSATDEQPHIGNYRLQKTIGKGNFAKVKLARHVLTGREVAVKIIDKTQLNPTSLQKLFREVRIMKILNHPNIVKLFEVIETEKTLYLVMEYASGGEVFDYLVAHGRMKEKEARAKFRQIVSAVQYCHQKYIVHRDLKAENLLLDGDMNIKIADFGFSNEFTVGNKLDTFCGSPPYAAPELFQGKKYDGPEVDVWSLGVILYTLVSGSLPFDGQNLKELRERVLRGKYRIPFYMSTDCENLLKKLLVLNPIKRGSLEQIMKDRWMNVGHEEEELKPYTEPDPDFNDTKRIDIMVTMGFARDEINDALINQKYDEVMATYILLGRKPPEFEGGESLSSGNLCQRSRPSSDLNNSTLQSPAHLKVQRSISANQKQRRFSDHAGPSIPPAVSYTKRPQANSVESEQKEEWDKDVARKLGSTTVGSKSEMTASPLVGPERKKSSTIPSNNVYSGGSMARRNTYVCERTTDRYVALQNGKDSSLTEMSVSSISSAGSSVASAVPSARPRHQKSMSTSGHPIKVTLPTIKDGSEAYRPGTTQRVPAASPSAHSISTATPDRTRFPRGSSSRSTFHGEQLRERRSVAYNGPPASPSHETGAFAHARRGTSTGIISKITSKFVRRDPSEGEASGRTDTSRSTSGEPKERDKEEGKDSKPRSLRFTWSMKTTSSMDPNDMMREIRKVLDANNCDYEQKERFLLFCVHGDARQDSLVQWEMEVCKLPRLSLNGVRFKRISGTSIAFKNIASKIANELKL
CDK1, sequence (P06493 whole entry, species assumed): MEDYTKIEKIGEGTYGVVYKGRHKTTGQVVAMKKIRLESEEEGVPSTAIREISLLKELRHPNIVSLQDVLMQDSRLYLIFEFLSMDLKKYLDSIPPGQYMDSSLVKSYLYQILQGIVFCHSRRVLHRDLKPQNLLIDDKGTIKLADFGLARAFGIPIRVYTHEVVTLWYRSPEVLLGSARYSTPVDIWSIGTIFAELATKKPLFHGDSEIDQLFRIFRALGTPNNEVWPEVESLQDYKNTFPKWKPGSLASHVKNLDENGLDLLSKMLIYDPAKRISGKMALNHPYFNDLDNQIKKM
CDK1, sequence (P14635 whole entry partner, species assumed): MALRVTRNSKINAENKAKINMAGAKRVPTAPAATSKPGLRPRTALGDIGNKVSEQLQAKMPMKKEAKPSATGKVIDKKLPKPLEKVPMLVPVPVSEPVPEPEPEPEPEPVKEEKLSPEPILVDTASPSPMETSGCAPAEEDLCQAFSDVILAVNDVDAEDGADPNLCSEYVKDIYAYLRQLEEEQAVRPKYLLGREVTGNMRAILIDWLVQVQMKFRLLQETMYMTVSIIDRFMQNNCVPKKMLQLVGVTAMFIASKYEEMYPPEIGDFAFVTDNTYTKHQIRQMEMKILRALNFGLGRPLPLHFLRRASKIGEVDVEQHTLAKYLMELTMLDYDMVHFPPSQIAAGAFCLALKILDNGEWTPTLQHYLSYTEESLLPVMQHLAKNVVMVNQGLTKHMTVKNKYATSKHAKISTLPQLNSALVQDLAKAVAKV

CN(C)Cc1ccc(-n2c(=O)ccc3cnc4ccc(-c5cc(Cl)c(O)c(Cl)c5)cc4c32)cc1 [THZ-4-63-1]
MELK kinase activity more sensitive than that of CDK1 (CDK1): 20 fold | Selectivity for MELK over BRSK1 (BRSK1): preferentially targets MELK | Selectivity for MELK over MARK1 (MARK1): preferentially targets MELK | Centromeric localization of CPC subunits Survivin and Aurora B [1]: became diffusive | pIC50 ([2]; 168 h, treated one week): ~7.30 | Cell death at low nanomolar dose ([2]; basal breast cancer cells): nearly complete cell death | Inhibition of cell growth, combined with paclitaxel (MDA-MB-468): ≥ 80%
